Drawing on ChEMBL document CHEMBL5465560, “Selectivity Literature for EUbOPEN Chemogenomic Library” (2024), this text covers % of inhibition and % of control for eleven compounds.

Molecules are shown by their SMILES.

The target of assay [1] is Glycogen synthase kinase-3 alpha (Homo sapiens, UniProt P49840). In words: Selectivity interaction (Upstate Kinase Profiler service (Millipore)) EUB0000056c GSK3A. As to conditions: at 1 µM.
Assay [2] has as its target Serine/threonine-protein kinase 32A (Homo sapiens) (UniProt Q8WU08). In words: Selectivity interaction (Ambit KINOMEscan and KiNATiv profiling in Jurkat cells) EUB0000090b STK32A. In kind it is cell-based. As to conditions: at 1 µM.
In assay [3] the target is T1, Serine/threonine-protein kinase D1 (Homo sapiens) (UniProt Q15139).
T1 sequence (whole entry): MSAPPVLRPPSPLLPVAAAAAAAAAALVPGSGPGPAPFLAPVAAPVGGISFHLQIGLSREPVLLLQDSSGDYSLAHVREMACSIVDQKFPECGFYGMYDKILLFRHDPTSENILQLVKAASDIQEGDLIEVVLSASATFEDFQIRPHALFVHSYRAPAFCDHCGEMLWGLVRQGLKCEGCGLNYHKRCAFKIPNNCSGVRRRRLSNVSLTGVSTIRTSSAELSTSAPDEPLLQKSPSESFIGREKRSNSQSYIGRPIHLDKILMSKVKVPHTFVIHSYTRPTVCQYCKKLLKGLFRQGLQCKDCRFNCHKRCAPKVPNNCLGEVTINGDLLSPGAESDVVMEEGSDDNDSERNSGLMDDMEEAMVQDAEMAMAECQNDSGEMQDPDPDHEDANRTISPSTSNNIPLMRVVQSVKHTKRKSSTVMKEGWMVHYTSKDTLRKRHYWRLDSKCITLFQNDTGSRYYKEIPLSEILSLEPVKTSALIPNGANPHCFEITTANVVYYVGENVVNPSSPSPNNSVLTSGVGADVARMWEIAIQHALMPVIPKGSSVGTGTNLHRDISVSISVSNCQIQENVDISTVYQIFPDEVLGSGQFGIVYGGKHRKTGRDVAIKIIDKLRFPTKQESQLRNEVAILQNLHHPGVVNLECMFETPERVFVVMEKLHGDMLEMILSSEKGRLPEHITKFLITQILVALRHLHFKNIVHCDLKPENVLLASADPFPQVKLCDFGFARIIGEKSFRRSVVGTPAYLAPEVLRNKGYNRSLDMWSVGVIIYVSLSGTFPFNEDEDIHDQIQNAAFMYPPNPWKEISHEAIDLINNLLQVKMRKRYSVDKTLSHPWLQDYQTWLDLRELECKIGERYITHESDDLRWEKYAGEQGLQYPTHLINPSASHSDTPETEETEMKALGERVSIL
As to the kind of experiment: Selectivity interaction (Millipore kinase profiler) EUB0000124b PRKD1. As to conditions: at 10 µM.

The target in assay [4] is Vascular endothelial growth factor receptor 1 (Homo sapiens) (UniProt P17948). In words: Selectivity interaction (Kinase screening (Nanosyn)) EUB0000604a FLT1.
Assay [5] deals with Cyclin-dependent kinase 14 (Homo sapiens) (UniProt O94921). In words: Selectivity interaction (KinomeScan (DiscoverX)) EUB0000045b CDK14.
In assay [6] the target is AP2-associated protein kinase 1 (Homo sapiens, UniProt Q2M2I8). As to the kind of experiment: Selectivity interaction (KinomeScan (DiscoverX)) EUB0001868a AAK1. As to conditions: at 1 µM.
Assay [7] deals with Mitogen-activated protein kinase kinase kinase 4 (Homo sapiens) (UniProt Q9Y6R4). As to the kind of experiment: Selectivity interaction (KinomeScan (DiscoverX)) EUB0000666a MAP3K4. Particulars: at 10 µM.
Assay [8] deals with Platelet-derived growth factor receptor beta (Homo sapiens, UniProt P09619). In words: Selectivity interaction (KinomeScan (DiscoverX)) EUB0000666a PDGFRB. Particulars: at 10 µM.
The target of assay [9] is T2, Serine/threonine-protein kinase tousled-like 1 (Homo sapiens) (UniProt Q9UKI8).
T2 sequence (whole entry): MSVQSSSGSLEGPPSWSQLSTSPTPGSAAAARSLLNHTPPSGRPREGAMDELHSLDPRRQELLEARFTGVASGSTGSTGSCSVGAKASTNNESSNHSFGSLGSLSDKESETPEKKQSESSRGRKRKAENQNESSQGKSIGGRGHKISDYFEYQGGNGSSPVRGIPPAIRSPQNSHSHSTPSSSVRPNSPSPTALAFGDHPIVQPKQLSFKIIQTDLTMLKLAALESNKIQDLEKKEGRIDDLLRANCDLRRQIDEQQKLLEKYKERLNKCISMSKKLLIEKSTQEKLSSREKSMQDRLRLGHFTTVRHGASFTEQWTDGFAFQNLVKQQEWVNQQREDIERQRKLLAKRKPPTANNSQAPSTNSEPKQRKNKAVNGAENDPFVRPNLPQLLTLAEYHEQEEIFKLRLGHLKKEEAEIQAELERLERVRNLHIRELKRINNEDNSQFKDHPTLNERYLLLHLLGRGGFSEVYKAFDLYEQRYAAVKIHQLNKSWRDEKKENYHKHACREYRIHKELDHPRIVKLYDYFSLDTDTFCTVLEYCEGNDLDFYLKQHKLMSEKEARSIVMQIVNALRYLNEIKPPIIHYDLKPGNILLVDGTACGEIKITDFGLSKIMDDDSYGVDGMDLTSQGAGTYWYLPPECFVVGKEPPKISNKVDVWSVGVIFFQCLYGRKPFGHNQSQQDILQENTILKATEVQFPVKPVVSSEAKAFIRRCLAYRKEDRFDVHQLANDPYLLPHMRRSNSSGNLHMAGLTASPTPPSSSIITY
In words: Selectivity interaction (LanthaScreen Eu Kinase Binding Assay) EUB0001632a TLK1. Particulars: at 10 µM. A general note: In TR-FRET formats the signal depends on donor and acceptor labels being close together.

In assay [10] the target is MAP kinase-activated protein kinase 2 (Homo sapiens, UniProt P49137). In words: Selectivity interaction (KinomeScan (DiscoverX)) EUB0000607a MAPKAPK2. As to conditions: at 10 µM.
In assay [11] the target is Ribosomal protein S6 kinase alpha-3 (Homo sapiens, UniProt P51812). As to the kind of experiment: Selectivity interaction (ActivX KiNativ screen (kinase selectivity in THP-1 cell lysates)) EUB0000639a RPS6KA3. In kind it is subcellular. Particulars: lysate, at 0.04 µM.
Assay [12] has as its target T3, Membrane-associated tyrosine- and threonine-specific cdc2-inhibitory kinase (Homo sapiens) (UniProt Q99640).
T3 sequence (whole entry): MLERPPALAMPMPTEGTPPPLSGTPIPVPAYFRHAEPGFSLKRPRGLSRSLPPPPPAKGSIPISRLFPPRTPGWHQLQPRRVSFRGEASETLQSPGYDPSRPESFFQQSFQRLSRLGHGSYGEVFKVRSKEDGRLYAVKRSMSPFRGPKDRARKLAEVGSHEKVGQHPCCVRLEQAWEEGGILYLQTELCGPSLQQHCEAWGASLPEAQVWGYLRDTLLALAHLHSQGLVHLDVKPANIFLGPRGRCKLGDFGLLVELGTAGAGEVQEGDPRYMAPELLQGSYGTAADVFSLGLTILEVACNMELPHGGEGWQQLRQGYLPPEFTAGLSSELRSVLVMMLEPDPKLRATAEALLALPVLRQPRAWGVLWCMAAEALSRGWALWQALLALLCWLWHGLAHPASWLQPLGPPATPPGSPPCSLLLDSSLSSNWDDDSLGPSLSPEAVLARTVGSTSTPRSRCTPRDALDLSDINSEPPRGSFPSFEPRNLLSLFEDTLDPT
As to the kind of experiment: Selectivity interaction (KinomeScan (DiscoverX)) EUB0000595a PKMYT1. As to conditions: at 10 µM.

Sequence of Cyclin-dependent kinase 14 (Homo sapiens) (O94921 whole entry): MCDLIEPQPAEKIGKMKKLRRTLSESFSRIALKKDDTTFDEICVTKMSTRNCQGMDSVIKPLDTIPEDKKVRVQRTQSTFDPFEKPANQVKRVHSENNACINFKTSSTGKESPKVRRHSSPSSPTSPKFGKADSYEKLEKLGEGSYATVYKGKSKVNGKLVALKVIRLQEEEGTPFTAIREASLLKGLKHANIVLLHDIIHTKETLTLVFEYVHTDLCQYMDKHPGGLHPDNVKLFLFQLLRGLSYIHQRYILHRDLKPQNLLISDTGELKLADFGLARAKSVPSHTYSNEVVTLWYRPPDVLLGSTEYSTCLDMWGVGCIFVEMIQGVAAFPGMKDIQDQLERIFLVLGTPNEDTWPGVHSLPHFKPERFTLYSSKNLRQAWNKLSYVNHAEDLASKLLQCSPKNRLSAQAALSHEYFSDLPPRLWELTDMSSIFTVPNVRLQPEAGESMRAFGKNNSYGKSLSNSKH
Sequence of Serine/threonine-protein kinase 32A (Homo sapiens) (Q8WU08 whole entry): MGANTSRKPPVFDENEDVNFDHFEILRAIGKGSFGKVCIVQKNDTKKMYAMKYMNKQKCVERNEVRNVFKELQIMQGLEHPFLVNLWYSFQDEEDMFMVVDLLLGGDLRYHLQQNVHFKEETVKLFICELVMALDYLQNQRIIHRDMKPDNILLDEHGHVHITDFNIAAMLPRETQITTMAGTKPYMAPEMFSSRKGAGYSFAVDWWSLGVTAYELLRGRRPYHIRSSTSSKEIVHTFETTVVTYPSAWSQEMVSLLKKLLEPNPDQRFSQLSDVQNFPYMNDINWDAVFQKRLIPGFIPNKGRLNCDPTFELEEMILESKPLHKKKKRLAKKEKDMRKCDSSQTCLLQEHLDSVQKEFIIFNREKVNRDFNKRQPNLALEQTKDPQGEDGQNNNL
Sequence of Mitogen-activated protein kinase kinase kinase 4 (Homo sapiens) (Q9Y6R4 whole entry): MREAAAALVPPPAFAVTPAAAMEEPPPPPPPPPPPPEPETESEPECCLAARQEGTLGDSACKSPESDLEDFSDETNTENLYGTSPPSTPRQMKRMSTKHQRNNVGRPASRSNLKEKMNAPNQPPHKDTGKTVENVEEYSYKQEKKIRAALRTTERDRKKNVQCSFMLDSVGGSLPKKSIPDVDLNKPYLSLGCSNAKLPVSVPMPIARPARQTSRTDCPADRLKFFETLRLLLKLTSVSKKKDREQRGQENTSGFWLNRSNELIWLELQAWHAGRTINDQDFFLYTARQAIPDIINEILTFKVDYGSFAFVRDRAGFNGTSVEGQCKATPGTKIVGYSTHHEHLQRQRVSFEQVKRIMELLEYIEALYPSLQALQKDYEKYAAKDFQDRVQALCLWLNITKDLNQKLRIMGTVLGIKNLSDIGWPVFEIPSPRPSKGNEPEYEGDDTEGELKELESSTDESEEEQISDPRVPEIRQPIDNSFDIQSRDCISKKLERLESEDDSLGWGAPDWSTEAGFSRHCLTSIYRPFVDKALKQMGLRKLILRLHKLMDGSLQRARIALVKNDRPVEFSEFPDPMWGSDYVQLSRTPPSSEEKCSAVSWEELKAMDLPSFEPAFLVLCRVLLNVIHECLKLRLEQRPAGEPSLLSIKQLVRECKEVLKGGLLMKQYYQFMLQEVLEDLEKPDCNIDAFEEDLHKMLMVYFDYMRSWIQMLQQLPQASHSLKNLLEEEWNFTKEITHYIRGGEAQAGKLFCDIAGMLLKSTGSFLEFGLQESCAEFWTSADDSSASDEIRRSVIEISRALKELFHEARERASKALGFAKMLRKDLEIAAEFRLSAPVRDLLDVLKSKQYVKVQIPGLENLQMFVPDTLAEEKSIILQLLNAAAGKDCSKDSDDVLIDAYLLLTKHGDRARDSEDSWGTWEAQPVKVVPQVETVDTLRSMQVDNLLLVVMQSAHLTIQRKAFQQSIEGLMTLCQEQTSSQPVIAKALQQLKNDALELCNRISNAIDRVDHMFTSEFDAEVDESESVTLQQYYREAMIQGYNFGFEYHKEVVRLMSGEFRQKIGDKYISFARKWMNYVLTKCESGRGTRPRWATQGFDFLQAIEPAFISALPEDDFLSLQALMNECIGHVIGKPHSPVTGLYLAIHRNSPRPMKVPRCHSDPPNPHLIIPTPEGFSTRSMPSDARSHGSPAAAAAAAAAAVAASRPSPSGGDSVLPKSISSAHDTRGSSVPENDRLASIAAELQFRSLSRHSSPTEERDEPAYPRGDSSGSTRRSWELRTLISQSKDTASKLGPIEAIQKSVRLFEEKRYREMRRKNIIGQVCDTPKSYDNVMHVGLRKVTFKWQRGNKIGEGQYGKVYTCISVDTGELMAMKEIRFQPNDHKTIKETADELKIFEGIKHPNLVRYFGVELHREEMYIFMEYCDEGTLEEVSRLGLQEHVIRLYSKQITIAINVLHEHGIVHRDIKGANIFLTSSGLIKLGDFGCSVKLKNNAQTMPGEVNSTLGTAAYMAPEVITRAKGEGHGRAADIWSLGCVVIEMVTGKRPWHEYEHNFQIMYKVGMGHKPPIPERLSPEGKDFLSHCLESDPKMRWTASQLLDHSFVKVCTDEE
Sequence of Platelet-derived growth factor receptor beta (P09619 whole entry): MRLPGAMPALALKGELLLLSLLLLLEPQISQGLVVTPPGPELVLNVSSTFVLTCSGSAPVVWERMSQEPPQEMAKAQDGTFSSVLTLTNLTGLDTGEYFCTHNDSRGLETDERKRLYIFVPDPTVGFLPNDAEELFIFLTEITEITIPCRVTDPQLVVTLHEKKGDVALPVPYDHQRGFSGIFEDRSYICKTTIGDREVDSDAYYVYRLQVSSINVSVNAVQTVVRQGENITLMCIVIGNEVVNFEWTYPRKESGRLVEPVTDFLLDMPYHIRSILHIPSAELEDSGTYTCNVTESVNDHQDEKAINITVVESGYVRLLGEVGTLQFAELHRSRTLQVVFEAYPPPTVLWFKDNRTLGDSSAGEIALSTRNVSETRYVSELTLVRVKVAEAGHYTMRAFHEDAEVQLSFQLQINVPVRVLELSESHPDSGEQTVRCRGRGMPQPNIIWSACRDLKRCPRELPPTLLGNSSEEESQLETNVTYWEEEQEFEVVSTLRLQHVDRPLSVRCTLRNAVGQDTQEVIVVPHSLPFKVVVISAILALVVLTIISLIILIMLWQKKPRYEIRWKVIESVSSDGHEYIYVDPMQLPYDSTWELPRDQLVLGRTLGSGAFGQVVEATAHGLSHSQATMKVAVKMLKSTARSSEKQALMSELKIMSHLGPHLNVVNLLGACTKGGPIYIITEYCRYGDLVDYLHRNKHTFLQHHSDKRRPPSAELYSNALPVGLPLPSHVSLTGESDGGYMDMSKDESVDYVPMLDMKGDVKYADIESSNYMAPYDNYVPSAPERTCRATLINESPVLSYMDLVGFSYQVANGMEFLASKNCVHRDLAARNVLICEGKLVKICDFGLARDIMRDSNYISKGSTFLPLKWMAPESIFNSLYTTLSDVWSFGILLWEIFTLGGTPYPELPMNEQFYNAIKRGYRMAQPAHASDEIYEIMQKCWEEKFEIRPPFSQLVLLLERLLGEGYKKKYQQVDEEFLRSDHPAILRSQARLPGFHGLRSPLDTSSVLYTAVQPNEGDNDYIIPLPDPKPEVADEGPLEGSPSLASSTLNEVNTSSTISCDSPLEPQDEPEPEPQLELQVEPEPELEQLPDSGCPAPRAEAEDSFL
Sequence of Vascular endothelial growth factor receptor 1 (Homo sapiens) (P17948 whole entry): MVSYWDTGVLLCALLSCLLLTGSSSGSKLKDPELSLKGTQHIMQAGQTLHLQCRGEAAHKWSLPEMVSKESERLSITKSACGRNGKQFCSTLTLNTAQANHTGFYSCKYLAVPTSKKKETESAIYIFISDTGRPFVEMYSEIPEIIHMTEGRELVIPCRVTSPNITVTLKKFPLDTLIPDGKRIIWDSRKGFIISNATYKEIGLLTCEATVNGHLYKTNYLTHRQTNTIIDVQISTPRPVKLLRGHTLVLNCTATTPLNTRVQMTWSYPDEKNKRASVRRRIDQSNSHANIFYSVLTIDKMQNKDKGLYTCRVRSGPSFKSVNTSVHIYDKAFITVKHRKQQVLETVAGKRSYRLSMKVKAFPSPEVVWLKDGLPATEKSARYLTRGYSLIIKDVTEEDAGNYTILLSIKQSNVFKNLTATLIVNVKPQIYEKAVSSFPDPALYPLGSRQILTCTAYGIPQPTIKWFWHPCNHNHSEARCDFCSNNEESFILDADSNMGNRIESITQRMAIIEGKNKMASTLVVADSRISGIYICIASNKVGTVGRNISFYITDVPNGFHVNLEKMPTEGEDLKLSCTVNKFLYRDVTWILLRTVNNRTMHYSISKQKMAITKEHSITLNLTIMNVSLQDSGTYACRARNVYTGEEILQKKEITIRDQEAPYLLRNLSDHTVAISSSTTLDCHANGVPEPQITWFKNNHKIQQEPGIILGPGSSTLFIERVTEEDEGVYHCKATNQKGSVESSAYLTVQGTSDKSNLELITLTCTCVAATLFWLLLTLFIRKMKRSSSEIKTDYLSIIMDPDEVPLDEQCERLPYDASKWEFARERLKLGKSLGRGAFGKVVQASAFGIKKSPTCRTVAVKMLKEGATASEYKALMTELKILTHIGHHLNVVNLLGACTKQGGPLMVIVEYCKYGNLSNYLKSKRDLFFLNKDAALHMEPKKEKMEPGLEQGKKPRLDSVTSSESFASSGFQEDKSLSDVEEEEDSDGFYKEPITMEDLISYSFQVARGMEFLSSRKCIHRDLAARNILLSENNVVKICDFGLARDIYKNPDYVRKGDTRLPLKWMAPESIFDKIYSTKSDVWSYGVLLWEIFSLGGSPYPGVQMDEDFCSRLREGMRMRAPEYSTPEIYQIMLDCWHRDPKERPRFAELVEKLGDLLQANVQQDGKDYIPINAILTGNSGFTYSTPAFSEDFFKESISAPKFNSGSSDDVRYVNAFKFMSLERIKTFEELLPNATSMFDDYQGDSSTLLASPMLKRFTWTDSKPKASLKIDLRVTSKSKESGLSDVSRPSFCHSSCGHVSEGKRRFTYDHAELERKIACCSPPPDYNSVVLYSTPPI

`Cc1ccc(-c2ccc3c(ccc4sc5c(c43)NC[C@@H](C)NC5=O)n2)cn1` showed a % of inhibition in assay [1] of 2%. As for `CN(C)C/C=C/C(=O)Nc1ccc(C(=O)N2CCCC(Nc3ncc(Cl)c(-c4c[nH]c5ccccc45)n3)C2)cc1` (stereo not drawn), the % of control in [2] is 99%. In assay [3], `CC(=O)Nc1cccc(-n2c(=O)n(C3CC3)c(=O)c3c(Nc4ccc(I)cc4F)n(C)c(=O)c(C)c32)c1` had a % of control of 111%.

`Cc1cnc(Nc2ccc(F)cc2Cl)nc1-c1c[nH]c(C(=O)N[C@H](CO)c2cccc(Cl)c2)c1` returned a % of inhibition in [4] of 0%. Regarding `C=CC(=O)Nc1cc(-n2c(=O)ccc3cnc4ccc(-c5ccc(NS(C)(=O)=O)cc5)cc4c32)ccc1C`, the results for the % of control in [5] (at 1 µM) and in assay [5] (at 10 µM) were 100% and 72%, respectively. The compound `Cc1cc(-c2ccnc(Nc3cnn(C)c3)n2)ccc1CNC(=O)N1CC(OC(C)C)C1` came in with a % of control in assay [6] of 22%.

Take `O=C(NOC[C@H](O)CO)c1ccc(F)c(F)c1Nc1ccc(I)cc1F`: the values for the % of control in assay [7] and in assay [8] were 100% and 66%, respectively.

As for `Cn1cc(-n2cnc3c(NCc4nc5cc(Cl)c(Cl)cc5[nH]4)nc(N4CCOCC4)nc32)cn1`, the % of inhibition in [9] was found to be 5.47%.

In assay [10], `CNC(=O)Nc1ccc(-c2nc(N3CC4CCC(C3)O4)c3cnn(C4CCC5(CC4)OCCO5)c3n2)cc1` had a % of control of 82%. The compound `CC[C@@H]1[C@H](F)C(=O)N[C@@H]1COc1nccc2cc(C(N)=O)c(OC)cc12` [ZIMLOVISERTIB] gave a % of inhibition in assay [11] of 16.1%.

As to `COCC(=O)NC/C=C/c1ccc2ncnc(Nc3ccc(Oc4ccc(C)nc4)c(C)c3)c2c1` [CP-724714], the % of control in assay [12] turned out to be 100%.
